Structures can show the parent of a compound that is named as a salt. Where two headings read alike, the source gives them in different places.
Molecular target: human Nav1.8 (Homo sapiens, UniProt Q9Y5Y9)
Assay: SyncroPatch384PE assay (automated patch clamp)
Assay type: cell-based
Conditions: human Nav1.8/b3 CHO cells
[1] = inactivated state block (P2 measurement), read-out: P2 IC50
[2] = resting state block (P1 measurement), read-out: P1 IC50

Sequence of human Nav1.8 (Q9Y5Y9 whole entry): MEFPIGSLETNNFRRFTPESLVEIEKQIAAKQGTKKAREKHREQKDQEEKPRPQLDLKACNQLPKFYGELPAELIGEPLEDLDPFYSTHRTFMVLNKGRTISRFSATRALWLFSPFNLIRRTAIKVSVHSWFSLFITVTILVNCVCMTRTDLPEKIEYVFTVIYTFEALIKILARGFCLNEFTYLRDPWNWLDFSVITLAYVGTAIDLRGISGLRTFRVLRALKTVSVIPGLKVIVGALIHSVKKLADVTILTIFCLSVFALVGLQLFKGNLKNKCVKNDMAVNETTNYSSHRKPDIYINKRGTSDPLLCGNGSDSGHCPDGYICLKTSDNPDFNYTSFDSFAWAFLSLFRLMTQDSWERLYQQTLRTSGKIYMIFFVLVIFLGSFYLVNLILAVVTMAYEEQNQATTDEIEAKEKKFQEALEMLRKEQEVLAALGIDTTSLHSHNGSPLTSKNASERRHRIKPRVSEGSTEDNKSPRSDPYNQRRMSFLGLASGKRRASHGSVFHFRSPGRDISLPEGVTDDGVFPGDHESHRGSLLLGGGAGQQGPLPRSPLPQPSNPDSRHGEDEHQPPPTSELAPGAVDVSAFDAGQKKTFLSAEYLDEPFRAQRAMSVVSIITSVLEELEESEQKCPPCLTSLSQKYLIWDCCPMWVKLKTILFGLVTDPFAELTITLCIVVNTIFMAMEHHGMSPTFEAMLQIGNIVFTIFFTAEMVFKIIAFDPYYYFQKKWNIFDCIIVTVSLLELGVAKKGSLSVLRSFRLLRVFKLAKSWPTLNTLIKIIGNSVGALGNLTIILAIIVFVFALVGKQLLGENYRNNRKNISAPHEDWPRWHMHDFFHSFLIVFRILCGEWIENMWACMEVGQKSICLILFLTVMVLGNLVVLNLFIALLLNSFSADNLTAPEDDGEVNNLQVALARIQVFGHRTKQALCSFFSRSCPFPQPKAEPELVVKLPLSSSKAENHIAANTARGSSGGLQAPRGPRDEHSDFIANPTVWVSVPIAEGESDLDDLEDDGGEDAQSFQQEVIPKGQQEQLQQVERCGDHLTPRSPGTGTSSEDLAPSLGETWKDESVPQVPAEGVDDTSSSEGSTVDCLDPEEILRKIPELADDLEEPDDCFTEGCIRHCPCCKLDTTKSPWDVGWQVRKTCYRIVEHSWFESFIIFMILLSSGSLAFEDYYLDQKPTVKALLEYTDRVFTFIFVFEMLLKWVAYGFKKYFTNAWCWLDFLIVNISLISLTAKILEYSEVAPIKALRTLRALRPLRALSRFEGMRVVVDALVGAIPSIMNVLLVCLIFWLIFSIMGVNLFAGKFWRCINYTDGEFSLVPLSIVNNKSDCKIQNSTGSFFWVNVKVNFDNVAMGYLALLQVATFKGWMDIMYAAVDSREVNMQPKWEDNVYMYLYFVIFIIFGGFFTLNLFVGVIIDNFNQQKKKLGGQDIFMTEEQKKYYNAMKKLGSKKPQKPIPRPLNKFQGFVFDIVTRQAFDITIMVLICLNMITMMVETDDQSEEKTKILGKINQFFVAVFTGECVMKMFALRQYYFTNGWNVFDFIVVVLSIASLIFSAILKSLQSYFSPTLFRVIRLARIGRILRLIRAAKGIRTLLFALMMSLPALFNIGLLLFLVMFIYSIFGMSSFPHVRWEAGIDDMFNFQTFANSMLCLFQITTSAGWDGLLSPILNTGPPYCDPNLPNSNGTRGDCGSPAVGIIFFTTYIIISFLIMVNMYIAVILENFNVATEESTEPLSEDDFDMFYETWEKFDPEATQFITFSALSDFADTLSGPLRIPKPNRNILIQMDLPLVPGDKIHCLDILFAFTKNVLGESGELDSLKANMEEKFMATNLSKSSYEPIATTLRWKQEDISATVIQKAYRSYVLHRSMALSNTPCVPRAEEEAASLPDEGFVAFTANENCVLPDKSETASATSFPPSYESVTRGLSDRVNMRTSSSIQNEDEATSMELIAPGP

IC50 [1] | IC50 [2] | SMILES
50 to 100 nM | 50 to 100 nM | Cc1c(-c2ccc(C#N)cc2)nnc(N2CCCC(F)(F)CC2)c1C(=O)Nc1cccc([S@](C)(=N)=O)c1 [Example 154, (R)-6-(4-cyanophenyl)-3-(4,4-difluoroazepan-1-yl)-5-methyl-N-(3-(S-methylsulfonimidoyl)phenyl)pyridazine-4-carboxamide]
5 to 50 nM | 5 to 50 nM | C[S@@](=N)(=O)c1cc(NC(=O)c2cc(Cl)c(C(F)(F)F)cc2N2CCO[C@H](C(F)(F)F)C2)ccn1 [Example 218, 5-chloro-N-(2-((R)—S-methylsulfonimidoyl)pyridin-4-yl)-4-(trifluoromethyl)-2-((S)-2-(trifluoromethyl)morpholino)benzamide]
50 to 100 nM | 50 to 100 nM | C[S@@](=N)(=O)c1cc(NC(=O)c2cc(Cl)c(C(F)(F)F)cc2N2CCO[C@@H](C(F)(F)F)C2)ccn1 [Example 217, 5-chloro-N-(2-((R)—S-methylsulfonimidoyl)pyridin-4-yl)-4-(trifluoromethyl)-2-((R)-2-(trifluoromethyl)morpholino)benzamide]
≤ 5 nM | ≤ 5 nM | Cc1c(C#N)c(C(F)(F)F)nc(N2CCCC(F)(F)CC2)c1C(=O)Nc1cccc([S@@](C)(=O)=NCCN)c1 [Example 196, (R)-N-(3-(N-(2-aminoethyl)-S-methylsulfonimidoyl)phenyl)-5-cyano-2-(4,4-difluoroazepan-1-yl)-4-methyl-6-(trifluoromethyl)nicotinamide]
≤ 5 nM | ≤ 5 nM | CNCC(=O)N=[S@](C)(=O)c1cccc(NC(=O)c2c(N3CCCC(F)(F)CC3)ncc(-c3ccc(C#N)cc3)c2C)c1 [Example 50, (R)-5-(4-cyanophenyl)-2-(4,4-difluoroazepan-1-yl)-4-methyl-N-(3-(S-methyl-N-(methylglycyl)sulfonimidoyl)phenyl)nicotinamide]
≤ 5 nM | ≤ 5 nM | Cc1c(Br)cnc(N2CCCC(F)(F)CC2)c1C(=O)Nc1cccc([S@@](C)(=O)=NCCN)c1 [Example 209, (R)-N-(3-(N-(2-aminoethyl)-S-methylsulfonimidoyl)phenyl)-5-bromo-2-(4,4-difluoroazepan-1-yl)-4-methylnicotinamide 2,2,2-trifluoroacetate]
≤ 5 nM | ≤ 5 nM | C[S@@](=N)(=O)c1cc(NC(=O)c2cc(Cl)c(C(F)(F)F)cc2N2CCCC(F)(F)CC2)ccn1 [Example 199, (R)-5-chloro-2-(4,4-difluoroazepan-1-yl)-N-(2-(S-methylsulfonimidoyl)pyridin-4-yl)-4-(trifluoromethyl)benzamide]
> 200 nM | > 200 nM | CS(=O)(=O)c1cccc(NC(=O)c2nnc(C(F)(F)F)cc2N2CCCCCC2)c1 [Example 37, 4-(Azepan-1-yl)-N-(3-(methylsulfonyl)phenyl)-6-(trifluoromethyl)pyridazine-3-carboxamide]
≤ 5 nM | ≤ 5 nM | Cc1c(C#CC2CC2)cnc(N2CCCC(F)(F)CC2)c1C(=O)Nc1cccc([S@](C)(=N)=O)c1 [Example 63, (R)-5-(cyclopropylethynyl)-2-(4,4-difluoroazepan-1-yl)-4-methyl-N-(3-(S-methylsulfonimidoyl)phenyl)nicotinamide]
≤ 5 nM | ≤ 5 nM | Cc1c(C(F)(F)F)cnc(N2CCCC(F)(F)CC2)c1C(=O)Nc1cccc([S@@](C)(=O)=NC(=O)[C@H](C)O)c1 [Example 192, 2-(4,4-difluoroazepan-1-yl)-N-(3-((R)-N-((S)-2-hydroxypropanoyl)-S-methylsulfonimidoyl)phenyl)-4-methyl-5-(trifluoromethyl)nicotinamide]
5 to 50 nM | 5 to 50 nM | Cc1c(C(F)(F)F)nnc(N2CCCC(F)(F)CC2)c1C(=O)Nc1ccnc(S(=N)(N)=O)c1 (centres unmarked) [Example 119, 3-(4,4-difluoroazepan-1-yl)-5-methyl-N-(2-sulfamidimidoylpyridin-4-yl)-6-(trifluoromethyl)pyridazine-4-carboxamide]
≤ 5 nM | ≤ 5 nM | Cc1c(C(F)(F)F)cnc(N2CCCC(F)(F)CC2)c1C(=O)Nc1cccc([S@@](C)(=O)=NC(=O)C(C)(C)N)c1 [Example 187, (R)-N-(3-(N-(2-amino-2-methylpropanoyl)-S-methylsulfonimidoyl)phenyl)-2-(4,4-difluoroazepan-1-yl)-4-methyl-5-(trifluoromethyl)nicotinamide]
> 200 nM | > 200 nM | O=C(Nc1cc[nH]c(=O)c1)c1nnc(C(F)(F)F)cc1N1CCCCCC1 [Example 36, 4-(Azepan-1-yl)-N-(2-oxo-1,2-dihydropyridin-4-yl)-6-(trifluoromethyl)pyridazine-3-carboxamide]
≤ 5 nM | ≤ 5 nM | Cc1c(C(F)(F)F)cnc(N2CCCC(F)(F)CC2)c1C(=O)Nc1cccc([S@@](C)(=N)=O)c1 [Example 163, (S)-2-(4,4-difluoroazepan-1-yl)-4-methyl-N-(3-(S-methylsulfonimidoyl)phenyl)-5-(trifluoromethyl)nicotinamide]
≤ 5 nM | ≤ 5 nM | C[S@+]([O-])c1cc(NC(=O)c2cc(Cl)c(C(F)(F)F)cc2N2CCCC(F)(F)CC2)ccc1F [Example 205, (S)-5-chloro-2-(4,4-difluoroazepan-1-yl)-N-(4-fluoro-3-(methylsulfinyl)phenyl)-4-(trifluoromethyl)benzamide]
≤ 5 nM | ≤ 5 nM | Cc1c(-c2ccc(C#N)cc2)cnc(N2CCCC(F)(F)CC2)c1C(=O)Nc1cccc([S@@](C)(=O)=NC(=O)C(C)(C)N)c1 [Example 55, (R)-N-(3-(N-(2-amino-2-methylpropanoyl)-S-methylsulfonimidoyl)phenyl)-5-(4-cyanophenyl)-2-(4,4-difluoroazepan-1-yl)-4-methylnicotinamide]
> 200 nM | > 200 nM | CS(=N)(=O)c1cccc(NC(=O)c2nnc(C(F)(F)F)cc2N2CCCCCC2)c1 (centres unmarked) [Example 9, 4-(azepan-1-yl)-N-(3-(S-methylsulfonimidoyl)phenyl)-6-(trifluoromethyl)pyridazine-3-carboxamide]
5 to 50 nM | 5 to 50 nM | Cc1c(-c2cnn(C)c2)cnc(N2CCCC(F)(F)CC2)c1C(=O)Nc1cccc([S@@](C)(=O)=NC(=O)[C@@H](C)O)c1 [Example 230, 2-(4,4-difluoroazepan-1-yl)-N-(3-((R)-N-((R)-2-hydroxypropanoyl)-S-methylsulfonimidoyl)phenyl)-4-methyl-5-(1-methyl-1H-pyrazol-4-yl)nicotinamide]
5 to 50 nM | 5 to 50 nM | Cc1ccc(-c2nnc(N3CCCC(F)(F)CC3)c(C(=O)Nc3cccc([S@](C)(=N)=O)c3)c2C)cc1 [Example 225, (R)-3-(4,4-difluoroazepan-1-yl)-5-methyl-N-(3-(S-methylsulfonimidoyl)phenyl)-6-(p-tolyl)pyridazine-4-carboxamide]
5 to 50 nM | 5 to 50 nM | Cc1c(-c2cnn(C3CC3)c2)cnc(N2CCCC(F)(F)CC2)c1C(=O)Nc1cccc([S@](C)(=N)=O)c1 [Example 69, (R)-5-(1-cyclopropyl-1H-pyrazol-4-yl)-2-(4,4-difluoroazepan-1-yl)-4-methyl-N-(3-(S-methylsulfonimidoyl)phenyl)nicotinamide]
≤ 5 nM | ≤ 5 nM | C[S@@](=N)(=O)c1cccc(NC(=O)c2cc(Cl)c(C(F)(F)F)cc2N2CCCC(F)(F)CC2)c1 [Example 77, (R)-5-chloro-2-(4,4-difluoroazepan-1-yl)-N-(3-(S-methylsulfonimidoyl)phenyl)-4-(trifluoromethyl)benzamide]
≤ 5 nM | ≤ 5 nM | Cc1c(C#N)c(C(F)(F)F)nc(N2CCCC(F)(F)CC2)c1C(=O)Nc1cccc([S@@](C)(=O)=NC(=O)CCN)c1 [Example 58, (R)-N-(3-(N-(3-aminopropanoyl)-S-methylsulfonimidoyl)phenyl)-5-cyano-2-(4,4-difluoroazepan-1-yl)-4-methyl-6-(trifluoromethyl)nicotinamide formate]
100 to 200 nM | > 200 nM | Cc1c(C#N)nnc(N2CCCC(F)(F)CC2)c1C(=O)Nc1cccc([S@](C)(=N)=O)c1 [Example 139, (R)-6-cyano-3-(4,4-difluoroazepan-1-yl)-5-methyl-N-(3-(S-methylsulfonimidoyl)phenyl)pyridazine-4-carboxamide]
5 to 50 nM | 5 to 50 nM | CNCC(=O)N=[S@@](C)(=O)c1cccc(NC(=O)c2c(N3CCCC(F)(F)CC3)nnc(C(F)(F)F)c2C)c1 [Example 44, (S)-3-(4,4-difluoroazepan-1-yl)-5-methyl-N-(3-(S-methyl-N-(methylglycyl)sulfonimidoyl)phenyl)-6-(trifluoromethyl)pyridazine-4-carboxamide]
5 to 50 nM | 5 to 50 nM | Cc1c(-c2nccs2)cnc(N2CCCC(F)(F)CC2)c1C(=O)Nc1cccc(S(C)(=N)=O)c1 (centres unmarked) [Example 98, 2-(4,4-difluoroazepan-1-yl)-4-methyl-N-(3-(S-methylsulfonimidoyl)phenyl)-5-(thiazol-2-yl)nicotinamide]
≤ 5 nM | ≤ 5 nM | CNCC(=O)N=[S@](C)(=O)c1cccc(NC(=O)c2cc(Cl)c(C(F)(F)F)cc2N2CCCC(F)(F)CC2)c1 [Example 228, (R)-5-chloro-2-(4,4-difluoroazepan-1-yl)-N-(3-(S-methyl-N-(methylglycyl)sulfonimidoyl)phenyl)-4-(trifluoromethyl)benzamide]
> 200 nM | > 200 nM | Cc1c(C2CC2)nnc(N2CCCC(F)(F)CC2)c1C(=O)Nc1cccc(S(C)(=N)=O)c1 (centres unmarked) [Example 22, 6-cyclopropyl-3-(4,4-difluoroazepan-1-yl)-5-methyl-N-(3-(S-methylsulfonimidoyl)phenyl)pyridazine-4-carboxamide]
≤ 5 nM | ≤ 5 nM | Cc1c(C(F)(F)F)nnc(N2CCCC(F)(F)CC2)c1C(=O)Nc1cccc([S@@](C)(=O)=NC(=O)[C@H](C)O)c1 [Example 233, 3-(4,4-difluoroazepan-1-yl)-N-(3-((R)-N-((S)-2-hydroxypropanoyl)-S-methylsulfonimidoyl)phenyl)-5-methyl-6-(trifluoromethyl)pyridazine-4-carboxamide]

Source: patent publication US20250154109A1, “SODIUM CHANNEL BLOCKING COMPOUNDS, DERIVATIVES THEREOF, AND METHODS OF THEIR USE” (LATIGO BIOTHERAPEUTICS, INC, priority 2022, published 2025)
